# Data as given in ChEMBL document CHEMBL1250518, “Nonsteroidal dissociated glucocorticoid agonists containing azaindoles as steroid A-ring mimetics” (J Med Chem, 2010).
# The source made the active and inactive calls. The calls are words filed in the database; no cut-off is given here.
# Key:
# [1] = Cmax in Sprague-Dawley rat at 30 mg/kg, po; format: ADME, organism-based; parameters: dose 30 mg/kg, route oral; details: in vivo
# Glucocorticoid receptor [2] = target: T1, Glucocorticoid receptor (Homo sapiens, UniProt P04150); experiment: Transactivation activity at glucocorticoid receptor in human HeLa cells transfected with luciferase gene linked to MMTV promoter by luciferase assay; format: cell-based
# T1 sequence (P04150 whole entry): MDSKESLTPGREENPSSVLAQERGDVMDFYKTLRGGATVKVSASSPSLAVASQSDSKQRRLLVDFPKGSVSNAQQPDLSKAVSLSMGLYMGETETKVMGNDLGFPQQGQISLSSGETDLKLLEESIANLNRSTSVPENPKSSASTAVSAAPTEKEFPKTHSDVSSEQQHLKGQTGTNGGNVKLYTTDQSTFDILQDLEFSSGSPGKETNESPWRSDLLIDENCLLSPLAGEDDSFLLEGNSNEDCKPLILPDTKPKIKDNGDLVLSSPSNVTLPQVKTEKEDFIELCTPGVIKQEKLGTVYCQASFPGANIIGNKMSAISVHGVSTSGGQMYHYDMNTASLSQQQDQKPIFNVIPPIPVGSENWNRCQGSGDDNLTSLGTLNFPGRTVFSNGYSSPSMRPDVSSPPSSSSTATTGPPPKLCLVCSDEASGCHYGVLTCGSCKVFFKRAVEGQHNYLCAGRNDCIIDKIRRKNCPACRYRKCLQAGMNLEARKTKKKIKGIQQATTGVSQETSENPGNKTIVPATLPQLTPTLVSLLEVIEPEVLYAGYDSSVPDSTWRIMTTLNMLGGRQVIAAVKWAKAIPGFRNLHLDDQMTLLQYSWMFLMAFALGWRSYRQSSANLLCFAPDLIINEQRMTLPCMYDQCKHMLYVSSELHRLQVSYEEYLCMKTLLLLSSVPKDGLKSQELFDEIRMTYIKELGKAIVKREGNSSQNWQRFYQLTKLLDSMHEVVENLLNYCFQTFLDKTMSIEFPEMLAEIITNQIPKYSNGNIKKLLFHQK
# Glucocorticoid receptor [3] = target: T1, Glucocorticoid receptor; experiment: Binding affinity to glucocorticoid receptor expressed in baculovirus-infected insect cells using tetramethylrhodamine labeled Dexamethasone by fluorescence polarization microplate assay
# [4] = Clearance in Sprague-Dawley rat at 2 mg/kg, iv; format: ADME, organism-based; parameters: dose 2 mg/kg, route intravenous; details: in vivo
# Progesterone receptor = target: T2, Progesterone receptor (Homo sapiens, UniProt P06401); experiment: Binding affinity to progesterone receptor expressed in baculovirus-infected insect cells using tetramethylrhodamine labeled RU-486 by fluorescence polarization microplate assay
# T2 sequence (P06401 whole entry): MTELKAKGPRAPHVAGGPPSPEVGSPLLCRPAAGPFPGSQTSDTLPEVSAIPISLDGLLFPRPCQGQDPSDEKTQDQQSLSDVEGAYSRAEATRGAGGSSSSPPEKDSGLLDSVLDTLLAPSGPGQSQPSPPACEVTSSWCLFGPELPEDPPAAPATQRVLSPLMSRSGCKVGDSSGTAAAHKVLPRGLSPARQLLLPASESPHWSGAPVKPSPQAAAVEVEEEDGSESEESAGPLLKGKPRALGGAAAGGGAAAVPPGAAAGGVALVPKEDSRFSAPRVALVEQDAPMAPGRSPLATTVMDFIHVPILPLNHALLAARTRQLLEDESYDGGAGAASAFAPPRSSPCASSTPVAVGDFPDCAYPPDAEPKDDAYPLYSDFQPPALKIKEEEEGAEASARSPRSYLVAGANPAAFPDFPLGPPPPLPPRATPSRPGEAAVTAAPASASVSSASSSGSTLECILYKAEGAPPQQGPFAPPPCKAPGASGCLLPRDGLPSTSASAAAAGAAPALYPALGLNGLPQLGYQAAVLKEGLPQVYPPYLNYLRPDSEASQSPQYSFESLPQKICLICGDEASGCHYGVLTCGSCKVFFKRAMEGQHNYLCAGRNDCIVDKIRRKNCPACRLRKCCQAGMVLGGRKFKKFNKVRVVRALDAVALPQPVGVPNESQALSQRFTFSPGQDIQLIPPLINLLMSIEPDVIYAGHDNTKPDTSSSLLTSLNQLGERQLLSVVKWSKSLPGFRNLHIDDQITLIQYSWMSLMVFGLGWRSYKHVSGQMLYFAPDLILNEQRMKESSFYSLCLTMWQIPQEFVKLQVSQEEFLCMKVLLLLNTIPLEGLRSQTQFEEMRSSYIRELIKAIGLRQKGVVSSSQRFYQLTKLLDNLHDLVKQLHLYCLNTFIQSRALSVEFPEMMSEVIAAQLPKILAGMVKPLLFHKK
# Mus musculus [5] = experiment: Toxicity in B10.RIII mouse assessed as increase of serum insulin level at 100 mg/kg, po qd for 5 weeks; format: organism-based; parameters: dose 100 mg/kg, route oral; details: in vivo, 840 h
# Glucocorticoid receptor [6] = target: T1, Glucocorticoid receptor; experiment: Transrepression activity at glucocorticoid receptor in HFF assessed as inhibition of IL-1-induced IL-6 production after 18 to 24 hrs by ELISA; format: cell-based
# [7] = AUC (infinity) in Sprague-Dawley rat at 30 mg/kg, po; format: ADME, organism-based, Plasma; parameters: time infinity, dose 30 mg/kg, route oral; details: Sprague-Dawley, plasma
# Mus musculus [8] = experiment: Antiinflammatory effect in collagen and Freund's complete adjuvant-induced B10.RIII mouse arthritis model assessed as inhibition of disease progression administered as po qd for 5 weeks; format: functional; details: 840 h
# Mus musculus [9] = experiment: Antiinflammatory activity in po dosed BALB/c mouse assessed as reduction of LPS-induced plasma TNFalpha level administered 1 hr before LPS challenge by ELISA; format: functional
# [10] = target: T3, Mineralocorticoid receptor (Homo sapiens, UniProt P08235); experiment: Binding affinity to mineralocorticoid receptor expressed in baculovirus-infected insect cells using tetramethylrhodamine labeled Dexamethasone by fluorescence polarization microplate assay
# T3 sequence (P08235 whole entry): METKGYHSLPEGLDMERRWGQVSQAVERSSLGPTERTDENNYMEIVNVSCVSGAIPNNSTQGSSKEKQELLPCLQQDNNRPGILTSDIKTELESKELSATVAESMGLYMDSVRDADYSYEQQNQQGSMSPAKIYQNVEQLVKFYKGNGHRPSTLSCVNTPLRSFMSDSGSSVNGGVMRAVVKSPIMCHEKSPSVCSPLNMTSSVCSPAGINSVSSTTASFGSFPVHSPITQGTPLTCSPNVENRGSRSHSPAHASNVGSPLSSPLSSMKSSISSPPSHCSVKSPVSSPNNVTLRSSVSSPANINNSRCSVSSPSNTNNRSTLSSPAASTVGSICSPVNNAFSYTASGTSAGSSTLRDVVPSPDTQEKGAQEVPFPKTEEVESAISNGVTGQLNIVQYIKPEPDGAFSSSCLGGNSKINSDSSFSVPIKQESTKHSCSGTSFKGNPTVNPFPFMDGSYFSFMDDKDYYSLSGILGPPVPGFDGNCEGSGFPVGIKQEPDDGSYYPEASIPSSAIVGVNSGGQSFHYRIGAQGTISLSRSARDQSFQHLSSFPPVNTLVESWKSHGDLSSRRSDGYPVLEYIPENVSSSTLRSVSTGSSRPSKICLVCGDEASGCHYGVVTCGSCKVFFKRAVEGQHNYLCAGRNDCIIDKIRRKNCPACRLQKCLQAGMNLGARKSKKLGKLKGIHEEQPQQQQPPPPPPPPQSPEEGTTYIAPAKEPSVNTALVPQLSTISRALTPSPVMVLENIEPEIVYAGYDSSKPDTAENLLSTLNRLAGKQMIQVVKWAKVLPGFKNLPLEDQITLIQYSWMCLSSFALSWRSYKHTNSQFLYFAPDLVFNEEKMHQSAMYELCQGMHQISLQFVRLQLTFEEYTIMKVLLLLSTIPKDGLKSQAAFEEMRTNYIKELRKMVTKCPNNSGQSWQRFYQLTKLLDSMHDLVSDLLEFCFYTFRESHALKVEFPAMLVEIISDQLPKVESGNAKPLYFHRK
# Mus musculus [11] = experiment: Toxicity in B10.RIII mouse assessed as increase of body fat content at 100 mg/kg, po qd for 5 weeks; format: organism-based; parameters: dose 100 mg/kg, route oral; details: in vivo, 840 h
# Glucocorticoid receptor [12] = target: T1, Glucocorticoid receptor; experiment: Transactivation activity at glucocorticoid receptor in HFF assessed as induction of aromatase activity after 18 to 24 hrs by ELISA; format: cell-based
# [13] = Half life in Sprague-Dawley rat at 2 mg/kg, iv; format: ADME, organism-based; parameters: dose 2 mg/kg, route intravenous; details: in vivo
# Mus musculus [14] = experiment: Antiinflammatory effect in collagen and Freund's complete adjuvant-induced B10.RIII mouse arthritis model assessed as inhibition of disease progression at 100 mg/kg, po qd for 5 weeks; format: functional, organism-based; parameters: dose 100 mg/kg
# [15] = Volume of distribution at steady state in Sprague-Dawley rat at 2 mg/kg, iv; format: ADME, organism-based; parameters: dose 2 mg/kg, route intravenous; details: in vivo, read-out: Vdss
# [16] = Oral bioavailability in Sprague-Dawley rat at 30 mg/kg; format: ADME, organism-based; details: Sprague-Dawley, in vivo
# Mus musculus [17] = experiment: Toxicity in B10.RIII mouse assessed as increase of triglyceride level at 30 mg/kg, po qd for 5 weeks; format: organism-based; parameters: dose 30 mg/kg, route oral; details: in vivo, 840 h
# Mus musculus [18] = experiment: Toxicity in collagen and Freund's complete adjuvant-induced B10.RIII mouse arthritis model assessed as increase of body fat content at 30 mg/kg, po qd for 5 weeks; format: organism-based; parameters: dose 30 mg/kg, route oral; details: in vivo, 840 h
# Mus musculus [19] = experiment: Toxicity in B10.RIII mouse assessed as increase of body fat content at 30 mg/kg, po qd for 5 weeks; format: organism-based; parameters: dose 30 mg/kg, route oral; details: in vivo, 840 h
# Mus musculus [20] = experiment: Toxicity in B10.RIII mouse assessed as increase of serum insulin level at 30 mg/kg, po qd for 5 weeks; format: organism-based; parameters: dose 30 mg/kg, route oral; details: in vivo, 840 h
# Mus musculus [21] = experiment: Toxicity in collagen and Freund's complete adjuvant-induced B10.RIII mouse arthritis model assessed as increase of serum insulin level at 30 mg/kg, po qd for 5 weeks; format: organism-based; parameters: dose 30 mg/kg, route oral; details: in vivo, 840 h
# Mus musculus [22] = experiment: Toxicity in collagen and Freund's complete adjuvant-induced B10.RIII mouse arthritis model assessed as increase of triglyceride level at 30 mg/kg, po qd for 5 weeks; format: organism-based; parameters: dose 30 mg/kg, route oral; details: in vivo, 840 h
# Mus musculus [23] = experiment: Toxicity in collagen and Freund's complete adjuvant-induced B10.RIII mouse arthritis model assessed as increase of free fatty acids level at 30 mg/kg, po qd for 5 weeks; format: organism-based; parameters: dose 30 mg/kg, route oral; details: in vivo, 840 h
# Mus musculus [24] = experiment: Antiinflammatory effect in collagen and Freund's complete adjuvant-induced B10.RIII mouse arthritis model assessed as inhibition of disease progression at 30 mg/kg, po qd for 5 weeks; format: functional; details: 840 h
# [25] = Clearance in Sprague-Dawley rat at 5 mg/kg, iv; format: ADME, organism-based; parameters: dose 5 mg/kg, route intravenous; details: in vivo
# [26] = Half life in Sprague-Dawley rat at 5 mg/kg, iv; format: ADME, organism-based; parameters: dose 5 mg/kg, route intravenous; details: in vivo
# [27] = Volume of distribution at steady state in Sprague-Dawley rat at 5 mg/kg, iv; format: ADME, organism-based; parameters: dose 5 mg/kg, route intravenous; details: in vivo, read-out: Vdss
# [28] = Tmax in Sprague-Dawley rat at 30 mg/kg, po; format: ADME, organism-based; parameters: dose 30 mg/kg, route oral; details: in vivo
SMILES,Cmax [1],IC50 (Glucocorticoid receptor [2]),IC50 (Glucocorticoid receptor [3]),IC50 (Progesterone receptor),IC50 (Glucocorticoid receptor [6]),AUC(0-inf) [7],ED50 (Mus musculus [8]),IC50 [10],EC50 (Glucocorticoid receptor [12]),bioavailability [16],other results
COc1ccc(-c2cncnc2)cc1C(C)(C)C[C@@](O)(Cc1cc2ccncc2[nH]1)C(F)(F)F,422 ng/mL,> 2000 nM,8 nM,> 2000 nM,20 nM,5930 ng·h/mL,30 mg/kg,> 2000 nM,> 2000 nM,97%,clearance [4]: 83 mL/min/kg; Activity (Mus musculus [5]): Non-toxic; ED50 (Mus musculus [9]): < 1 mg/kg; Activity (Mus musculus [11]): Non-toxic; half-life [13]: 1 h; Activity (Mus musculus [14]): Active; Vd [15]: 6.6 L/kg
CC(C)(CC(O)(Cc1cc2ccncc2[nH]1)C(F)(F)F)c1cccc2c1OCC2 (stereo not drawn),–,> 2000 nM,4.5 nM,130 nM,15 nM,–,–,780 nM,30 nM,–,–
COc1ccc(F)cc1C(C)(C)C[C@@](O)(Cc1cc2cnccc2[nH]1)C(F)(F)F,–,22 nM,1.4 nM,600 nM,2 nM,–,–,58 nM,35 nM,–,–
CC(C)(CC(O)(Cc1cc2ccncc2[nH]1)C(F)(F)F)c1ccccc1 (stereo not drawn),–,> 2000 nM,9.3 nM,190 nM,31 nM,–,–,810 nM,> 2000 nM,–,–
C[C@]12C=CC(=O)C=C1CC[C@@H]1[C@@H]2[C@@H](O)C[C@@]2(C)[C@H]1CC[C@]2(O)C(=O)CO [PREDNISOLONE],–,–,–,–,–,–,10 mg/kg,44 nM,–,–,Activity (Mus musculus [17]): Toxic; Activity (Mus musculus [18]): Non-toxic; Activity (Mus musculus [19]): Toxic; Activity (Mus musculus [20]): Toxic; Activity (Mus musculus [21]): Non-toxic; Activity (Mus musculus [22]): Toxic; Activity (Mus musculus [23]): Non-toxic; inhibition in vivo at 30 mg/kg (Mus musculus [24]): 77%
COc1ccc(F)cc1C(C)(C)C[C@@](O)(Cc1cc2ccncc2[nH]1)C(F)(F)F,427 ng/mL,20 nM,1.4 nM,1150 nM,6 nM,1740 ng·h/mL,–,380 nM,10 nM,21%,clearance [25]: 61 mL/min/kg; half-life [26]: 1.7 h; Vd [27]: 8.7 L/kg; Tmax [28]: 2 h
